Patent publication US20230097753A1, “ALPHA-HYDROXYLATED FATTY-ACID METABOLITES, MEDICAL USES AND USE AS BIOMARKERS” (UNIVERSITAT DE LES ILLES BALEARS, priority 2020, published 2023)

Assays:
A549 = assay: IC50 in tumor cell cultures (cell survival, XTT / trypan blue); format: cell-based; conditions: A549 human lung adenocarcinoma cell line
Experimental: (§1) Cell survival was analyzed in a Barker chamber using trypan blue vital exclusion staining (Scharlab) or by cell proliferation kit II (Roche). Briefly, the cells were seeded in 96-well plates at a density of 3 x 10^3 cells per well 24 h prior to treatment, and then cultured in the presence or absence of compounds of interest at the concentrations and for the times indicated in the figures. After different times, plaque viable cells were determined by the addition of XTT according to the manufacturers instructions. Cells were incubated at 37° C. in 5% CO2 until a constant color was developed and absorbance was recorded at 495 nm using a microplate reader with a reference wavelength of 650 nm (FLUOstar Omega, BMG LABTECH, Germany).
(§2) The anti-tumor activity of the different metabolites described in FIGS. 8 and 9 was determined by direct treatment with these molecules (HDA or C17:2 ω-6, HTA ω-3 or C17:3 ω-3, HTA ω-6 or C17:3 ω-6, NTA or C19:4 ω-6, NPA or C19:5 ω-3, and HPA or C21:5 ω-3) in tumor cell cultures, on which the IC50 value for each of these compounds was determined (Inhibitory Concentration 50: concentration of study compound that induces death of 50% of the tumor cell population).

MIA-PaCa 2 = assay: as above; format: cell-based; conditions: Homo sapiens; MIA-PaCa 2 pancreatic cancer cell line
Experimental: as §1, §2

HEK293T cells = assay: Metabolic conversion and uptake of 2-hydroxylated fatty acids in HEK293T cell cultures; format: in vitro ADME, human; conditions: HEK293T; for Formation of the metabolite from its 2-hydroxylated prodrug in the presence of oxythiamine: prodrug 100 μM, 24 h, 10 mM oxythiamine
Experimental: To describe the metabolic conversion of DHA-H to HPA(C21:5 ω-3), as well as the conversion of LA-H to HDA (C17:2 ω-6), ALA-H to HTA ω-3 (C17:3 ω-3), GLA-H to HTA ω-6 (C17:3 ω-6), ARA-H to NTA (C19:4 ω-6), EPA-H to NPA (C19:5 ω-3), HEK293T (Human Embryonic Kidney Cells 293T) cell cultures were employed, which is an embryonic, non-tumoral cell line, widely used in human metabolism studies under physiological conditions.
HEK293T cells were cultured in Dulbecco's Modified Eagle's Medium (DMEM; Dubelcco's Modified Eagle's Medium, Biowest, France), supplemented with 10% FBS (Fetal Bovine Serum; Gibco, Thermo-Fisher), 2 mM L-Gln, 25 mM D(+)-glucose, 1 mM sodium pyruvate, and penicillin/streptomycin. Mouse neuroblastoma N2a cells were maintained in a 1:1 (v:v) mixture of DMEM and Opti-Mem (Gibco, Thermo-Fisher), supplemented with 5% FBS and penicillin/streptomycin. Both cell lines were incubated in an atmosphere of 5% CO2 at 37° C.
HEK293T cells were incubated with DHA-H and DHA at 10, 30 and 100 μM for 24 hours, and at 30 μM for 6, 48 and 72 hours. These cells were also incubated with LA-H, ALA-H, GLA-H, ARA-H and EPA-H at 100 μM for 24 hours. HEK293T cells were also incubated with oxythiamine in the presence of DHA-H under the same conditions, at final oxythiamine concentrations of 1 and 10 mM. The HEK293T cells were separated from the plates by pipettes with cold phosphate buffer saline solution (PBS). Cells were recovered by centrifugation (1000 xg, 10 min at 4° C.) and washed twice with cold PBS before being frozen at −80° C. To analyze DHA-H and DHA levels in the cell culture medium, 90 mm diameter plates were filled with 11 mL of complete cell culture medium containing 30 μM DHA-H or DHA in the presence or absence of attached HEK293T cells (5.10^5 cells/plate). The plates were incubated as described above and 1 ml aliquots of the plates were collected at 0, 6, 24, 48 and 72 hours. Aliquots of the cell culture medium were immediately centrifuged at 1000×g for 10 min at 4° C. to remove any cell suspension and the cell-free aliquots were stored at -20° C.
The cell lysates were subjected to ultrasound pulses (4 cycles, 10 s/cycle, 10 W) before lipid extraction. For brain analysis, the tissue of each animal was homogenized in cold PBS at 1:10 (p:v) in the presence of protease inhibitors (Roche), using a blade homogenizer (Polytron PT3100). Homogenates were ultrasounded, aliquots were made and stored at −80 ° C. Only one aliquot of each sample, containing about 8 mg protein/aliquot, was subjected to lipid extraction. Protein content before lipid extraction was determined by a modified Lowry method (Bio-rad DC Protein Assay).
Margaric acid (C17:0) was added to the samples subjected to lipid extraction as an internal standard and the lipids were extracted with chloroform:methanol (Eggers and Schwudke, 2016). Briefly, 0.75 volumes of the aqueous phase (which already contained the biological sample) were mixed with 2 volumes of chloroform and 1 volume of methanol. This mixture was vortexed for 1 minute and centrifuged at 1000×g for 10 minutes. The lower organic phase was collected and washed with 1 ml of PBS:methanol (1:1,v:v), and the resulting organic phase was dried under argon flow. The film containing the extracted lipids was transmethylated by incubation of the lipid mixture for 90 minutes at 100° C. in 3 ml of methanol:acetyl chloride (10:1, v:v), under an argon atmosphere (Christie, 1993). The resulting fatty acid methyl esters (FAMEs) were extracted with hexane, adding 3 ml of H2O and 1 ml of hexane to the transmethylation reaction, and vortexing the mixture thoroughly. After centrifugation at room temperature (1000×g for 10 min), the upper phase containing the FAMEs was collected and the remaining volume was washed twice with 1 ml of hexane.

SF-295 glioma cells = assay: Cell viability by violet crystal staining, 72 hours; format: cell-based, human; conditions: SF-295, 72 hours
Experimental: FIG. 14. Effect of 2OHOA sodium salt, OA and C17:1n-9 sodium salt on cell viability and proliferation of glioma cells. […] Viability was determined by violet crystal staining.
(§3) In order to evaluate the antiproliferative effect of C17:1n-9, its IC50, which corresponds to the amount of a compound needed to reduce cell viability in vitro by 50%, as well as its effect on the regulation of proteins involved in the mechanism of action of 2OHOA, were determined. […] Upon completion of treatment, IC50 was determined by violet crystal staining technique. […] The IC50 of 2OHOA was 1000 μM for non-tumor cells, MRC-5 and astrocytes.

[1] = system: MRC-5 (human fibroblasts); assay: as above; format: cell-based; conditions: MRC-5 non-tumor cells
Experimental: FIG. 15. Effect of 2OHOA sodium salt, C17:1n-9 sodium salt, and OA on cell viability and proliferation of non-tumor cells. Non-tumor cell viability curves (A1-A3) MRC-5 (human fibroblasts); and (B1-B3) mouse astrocytes treated with increasing doses of 2OHOA sodium salt (0-1000 μM) (A1 and B1); OA (0-300 μM) (A2 and B2); and C17:1n-9 sodium salt (0-300 μM) (A3 and B3) for 72 hours. Viability was determined by violet crystal staining.
as §3

SF-295 = assay: Cell survival by trypan blue vital exclusion staining, 2OHOA and oxythiamine; format: cell-based, human; conditions: SF-295, 2 mM oxythiamine, 72 hours
Experimental: FIG. 18. Effect of metabolite C17:1n-9 on the action of 2OHOA. […] Cell viability was determined by vital exclusion staining with trypan blue.
(§4) To study whether the metabolite C17:1n-9 can participate in the action of 2OHOA, the effect of pre-incubation with oxythiamine on cell survival and 2OHOA-regulated proteins was studied. To do this, the cell survival of different glioma and non-tumor cell lines treated with 2OHOA (400 μM, 72 hours) and pre-incubated or not with 2 mM […] (90 minutes) was analyzed by counting the cells with the vital exclusion stain with trypan blue. In addition, Western-blot 2OHOA-modulated proteins were studied. In glioma cells, a significant decrease in cell survival was observed after incubation with 2 mM oxythiamine for 72 hours.

[2] = system: BIP, CHOP, cJun phosphorylation, phosphorylation of Akt, cyclin D3; assay: Western Blot of proliferation and death markers in glioma and non-tumor cell lines; format: cell-based; conditions: glioma cells, oxythiamine 2 mM, 72h
Experimental: FIG. 16. Analysis of the effect of different fatty acids on markers of proliferation and death in different cell lines.
as §4

SMILES | IC50 (A549) [µM] | IC50 (MIA-PaCa 2) [µM] | Formation of the metabolite from its 2-hydroxylated prodrug in the presence of oxythiamine (HEK293T cells) | also measured
CCCCC/C=C\C/C=C\CCCCCCC(=O)O [HDA, (8Z,11Z)-heptadeca-8,11-dienoic acid] | 159 ± 10 | 234 ± 18 | inhibited | 
CC/C=C\C/C=C\C/C=C\CCCCCCC(=O)O [HTA n-3, (8Z,11Z,14Z)-heptadeca-8,11,14-trienoic acid] | 166 ± 30 | 216 ± 24 | inhibited | 
CC/C=C\C/C=C\C/C=C\C/C=C\C/C=C\CCC(=O)O [NPA, (4Z,7Z,10Z,13Z,16Z)-nonadeca-4,7,10,13,16-pentaenoic acid] | 143 ± 39 | 91 ± 18 | inhibited | 
CCCCC/C=C\C/C=C\C/C=C\CCCC(=O)O [HTA n-6, (5Z,8Z,11Z)-heptadeca-5,8,11-trienoic acid] | 212 ± 48 | 95 ± 31 | inhibited | 
CCCCC/C=C\C/C=C\C/C=C\C/C=C\CCC(=O)O [NTA, (4Z,7Z,10Z,13Z)-nonadeca-4,7,10,13-tetraenoic acid] | 216 ± 3 | 62 ± 2 | inhibited | 
CCCCCCCC/C=C\CCCCCCCC(=O)[O-].[Na+] [OA, reference compound] |  |  |  | IC50 (SF-295 glioma cells): 256 ± 5.79 µM; IC50 [1]: 236 ± 6.73 µM
Cc1ncc(C[n+]2csc(CCO)c2C)c(=O)[nH]1 [oxythiamine, reference compound] |  |  |  | Cell death (SF-295): 17.35±0.63%; Effect on signaling proteins (Western Blot) [2]: in the same sense as 2OHOA, although milder; Inhibition of the increase in HPA levels from DHA-H (HEK293T cells; oxythiamine 1 mM): partial inhibition; Inhibition of the increase in HPA levels from DHA-H (HEK293T cells; oxythiamine 10 mM): almost total
CC/C=C\C/C=C\C/C=C\C/C=C\C/C=C\C/C=C\CCC(=O)O [DHA, docosahexaenoic acid, reference compound] |  |  |  | Levels in the culture medium in the presence of cell culture (uptake) (HEK293T cells; 30 μM, up to 72 h): decreased significantly at 48 and 72 h
